Among the data in paper PMC6010027, “Iodine-mediated one-pot intramolecular decarboxylation domino reaction for accessing functionalised 2-(1,3,4-oxadiazol-2-yl)anilines with carbonic anhydrase inhibitory action” (Journal of Enzyme Inhibition and Medicinal Chemistry, 2018) are Ki values, retold here.

As usually defined, the Ki is the dissociation constant of the complex between target and ligand, obtained from inhibition or displacement. Higher therefore signals weaker binding.

Assay in all cases: stopped-flow CO2 hydrase assay
Holding throughout (assay type): biochemical

The target in assay [1] is T1, hCA II (Homo sapiens, UniProt P00918).
T1 construct: gene CA2; recombinant; cytosolic isoform
An excerpt: stopped-flow CO2 hydrase assay on hCA II

Assay [2] addresses T2, hCA IX (Homo sapiens, UniProt Q16790).
T2 construct: gene CA9; recombinant; transmembrane isoform
From the text:
stopped-flow CO2 hydrase assay on hCA IX

Assay [3] deals with T3, hCA I (Homo sapiens, UniProt P00915).
T3 construct: gene CA1; recombinant; cytosolic isoform
From the text:
stopped-flow CO2 hydrase assay on hCA I

For assay [4], the target named is T4, hCA IV (Homo sapiens, UniProt P22748).
T4 construct: gene CA4; recombinant; membrane-anchored isoform
From the text: stopped-flow CO2 hydrase assay on hCA IV

T4 sequence (P22748 19-284): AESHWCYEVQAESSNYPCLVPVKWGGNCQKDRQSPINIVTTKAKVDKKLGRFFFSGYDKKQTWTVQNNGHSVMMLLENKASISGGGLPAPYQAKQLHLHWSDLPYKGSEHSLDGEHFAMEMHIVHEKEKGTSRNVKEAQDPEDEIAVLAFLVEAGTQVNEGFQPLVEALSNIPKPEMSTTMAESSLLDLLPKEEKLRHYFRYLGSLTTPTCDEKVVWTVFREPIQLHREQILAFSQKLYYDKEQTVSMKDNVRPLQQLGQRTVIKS
T3 sequence (P00915 2-261): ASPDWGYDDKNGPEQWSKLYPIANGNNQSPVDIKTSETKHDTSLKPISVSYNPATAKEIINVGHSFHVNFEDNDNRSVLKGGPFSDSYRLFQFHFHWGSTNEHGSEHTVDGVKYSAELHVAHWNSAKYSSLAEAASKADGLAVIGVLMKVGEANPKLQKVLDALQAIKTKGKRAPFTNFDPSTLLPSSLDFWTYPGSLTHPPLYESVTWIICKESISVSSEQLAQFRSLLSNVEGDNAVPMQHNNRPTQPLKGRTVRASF

For the compound `Nc1ccccc1-c1nnc(-c2cccc(S(N)(=O)=O)c2)o1` [8j, 3-(5-(2-Aminophenyl)-1,3,4-oxadiazol-2-yl)benzenesulfonamide], the inhibition constant (Ki) in assay [1] came to 0.0469 µM; in assay [2], 2.92 µM; in assay [3] it was 3.31 µM; in assay [4] it was 0.526 µM.
Take `Nc1ccc(Cl)cc1-c1nnc(-c2ccc(S(N)(=O)=O)cc2)o1` [8e, 4-(5-(2-Amino-5-chlorophenyl)-1,3,4-oxadiazol-2-yl)benzenesulfonamide]: the Ki was 0.221 µM in assay [1], 2.37 µM in assay [2], 3.5 µM in assay [3] and 8.24 µM in assay [4].
On to `Cc1ccc(N)c(-c2nnc(-c3ccc(S(N)(=O)=O)cc3)o2)c1` [8b, 4-(5-(2-Amino-5-methylphenyl)-1,3,4-oxadiazol-2-yl)benzenesulfonamide], for which the Ki in assay [1] is 0.0515 µM; in assay [2], 1.6 µM; in assay [3], 0.27 µM; in assay [4], 5.61 µM.
On to `Cc1cc(C)c(N)c(-c2nnc(-c3ccc(S(N)(=O)=O)cc3)o2)c1` [8h, 4-(5-(2-Amino-3,5-dimethylphenyl)-1,3,4-oxadiazol-2-yl)benzenesulfonamide], for which the inhibition constant Ki in assay [1] was 0.0176 µM; in assay [2], 2.03 µM; in assay [3], 0.0891 µM; in assay [4] it was 7.59 µM.
Regarding `Cc1ccc(N)c(-c2nnc(-c3cccc(S(N)(=O)=O)c3)o2)c1` [8k, 3-(5-(2-Amino-5-methylphenyl)-1,3,4-oxadiazol-2-yl)benzenesulfonamide], the Ki turned out to be 0.0646 µM in assay [1], 2.96 µM in assay [2], 5.83 µM in assay [3] and 0.437 µM in assay [4].
Take `Nc1c(Cl)cc(Cl)cc1-c1nnc(-c2ccc(S(N)(=O)=O)cc2)o1` [8i, 4-(5-(2-Amino-3,5-dichlorophenyl)-1,3,4-oxadiazol-2-yl)benzenesulfonamide]: the inhibition constant (Ki) was 0.0464 µM in assay [1], 2.74 µM in assay [2], 0.813 µM in assay [3] and 6.78 µM in assay [4].
Take `Nc1ccc(F)cc1-c1nnc(-c2ccc(S(N)(=O)=O)cc2)o1` [8d, 4-(5-(2-Amino-5-fluorophenyl)-1,3,4-oxadiazol-2-yl)benzenesulfonamide]: the inhibition constant (Ki) in assay [1] worked out at 0.0437 µM; in assay [2] it was 1.6 µM; in assay [3], 0.736 µM; in assay [4], 6.33 µM.
As for `Nc1ccc(F)cc1-c1nnc(-c2cccc(S(N)(=O)=O)c2)o1` [8m, 3-(5-(2-Amino-5-fluorophenyl)-1,3,4-oxadiazol-2-yl)benzenesulfonamide], the inhibition constant (Ki) is 0.307 µM in assay [1], 2.57 µM in assay [2], 0.747 µM in assay [3] and 0.548 µM in assay [4].
`Nc1ccc(OC(F)(F)F)cc1-c1nnc(-c2cccc(S(N)(=O)=O)c2)o1` [8n, 3-(5-(2-Amino-5-(trifluoromethoxy)phenyl)-1,3,4-oxadiazol-2-yl)benzenesulfonamide]: the inhibitory constant (Ki) was 0.48 µM in assay [1], 0.255 µM in assay [2], 0.344 µM in assay [3] and 9.43 µM in assay [4].
On to `COc1ccc(N)c(-c2nnc(-c3ccc(S(N)(=O)=O)cc3)o2)c1` [8c, 4-(5-(2-Amino-5-methoxyphenyl)-1,3,4-oxadiazol-2-yl)benzenesulfonamide], for which the Ki in assay [1] is 0.0164 µM; in assay [2] it was 0.282 µM; in assay [3], 0.321 µM; in assay [4], 5.92 µM.
Turning to `Nc1c(F)cccc1-c1nnc(-c2ccc(S(N)(=O)=O)cc2)o1` [8g, 4-(5-(2-Amino-3-fluorophenyl)-1,3,4-oxadiazol-2-yl)benzenesulfonamide], the inhibition constant Ki was 0.0064 µM in assay [1], 2.27 µM in assay [2], 0.0814 µM in assay [3] and 2.02 µM in assay [4].
For the compound `COc1ccc(N)c(-c2nnc(-c3cccc(S(N)(=O)=O)c3)o2)c1` [8l, 3-(5-(2-Amino-5-methoxyphenyl)-1,3,4-oxadiazol-2-yl)benzenesulfonamide], the inhibitory constant (Ki) was 0.516 µM in assay [1], 2.72 µM in assay [2], 3.51 µM in assay [3] and 0.588 µM in assay [4].
As for `Nc1c(F)cccc1-c1nnc(-c2cccc(S(N)(=O)=O)c2)o1` [8o, 3-(5-(2-Amino-3-fluorophenyl)-1,3,4-ovxadiazol-2-yl)benzenesulfonamide], the Ki in assay [1] was 0.0863 µM; in assay [2] it was 0.14 µM; in assay [3], 0.731 µM; in assay [4], 0.521 µM.
Consider `Nc1ccccc1-c1nnc(-c2ccc(S(N)(=O)=O)cc2)o1` [8a, 4-(5-(2-Aminophenyl)-1,3,4-oxadiazol-2-yl)benzenesulfonamide], for which the Ki was determined as 0.0341 µM in assay [1], 1.89 µM in assay [2], 0.222 µM in assay [3] and 7.34 µM in assay [4].
The corresponding values for `Nc1ccc(OC(F)(F)F)cc1-c1nnc(-c2ccc(S(N)(=O)=O)cc2)o1` [8f, 4-(5-(2-Amino-5-(trifluoromethoxy)phenyl)-1,3,4-oxadiazol-2-yl)benzenesulfonamide] are 0.0932 µM, 2.45 µM, 0.71 µM and 2.17 µM.
